From PubChem BioAssay AID2823 (Broad Institute, 2010)
pIC50: −log10 of the molar value. The source made the active and inactive calls. No rule for the calls is given here.

Target: RanGTP-importin-beta complex (human Ran / KPNB1)
Assay: Ran–importin-beta interaction inhibitors, confirmation, biochemical, FRET, CFP/YFP, cell-free homogeneous (AID 2823)
Settings: CFP-Ran/YFP-importin-beta FRET ratio

SMILES	IC50	pIC50
O=[N+]([O-])c1ccc(CNC2CCCc3ccccc32)cc1 (centres undefined)	> 50 µM (inactive)	
CC1=NN(C(=O)Cn2nc([N+](=O)[O-])cc2C)C(O)(C(F)(F)F)C1 (centres undefined)	> 50 µM (inactive)	
Cc1ccc(S(=O)(=O)/C(C#N)=C/c2c(N3CCC(C(N)=O)CC3)nc3ccccn3c2=O)cc1	> 50 µM (inactive)	
Cc1onc(-c2ccccc2)c1C(=O)Nc1cccc2nsnc12		4.48
Cc1ccc2cc(CN(CC3CCCO3)C(=S)Nc3ccccc3)c(=O)[nH]c2c1C (centres undefined)	> 50 µM (inactive)	
COCCNc1cc(C)nc2cc(-c3ccc(C)cc3)nn12		5.28
Cc1[nH]c2ccccc2c1/C=C/c1nc2ccccc2c(=O)n1CCO	> 50 µM (inactive)	
CCOc1ccc2nc(SCC(=O)NCc3ccc4c(c3)OCO4)[nH]c2c1	> 50 µM (inactive)	
Cc1cccc2cc(C#N)c(NCCNC(=O)COc3ccccc3)nc12	> 50 µM (inactive)	
O=C(Cn1c2ccccc2c(=O)c2ccccc21)N/N=C/c1ccc(N2CCCC2)c([N+](=O)[O-])c1	> 50 µM (inactive)	
CC1CC1c1ccc(/C=C(\C#N)C(=O)Nc2ccc(Cl)cc2)o1 (centres undefined)	> 50 µM (inactive)	
CC1CC(=O)N(CC(=O)Nc2cccc(Cl)c2)c2ccccc2S1(=O)=O (centres undefined)	> 50 µM (inactive)	
CCC(=O)NCCNc1nc2cc(C)c(C)cc2cc1C#N		4.80
CC(NC(=O)/C(C#N)=C/c1ccc(N2CCOCC2)cc1)c1ccccc1 (centres undefined)		4.70
Cc1cc(C=C(C#N)C#N)ccc1N1CCCC1	> 50 µM (inactive)	
CC(C)c1ccccc1NC(=O)C1C2C=CC(C2)C1C(=O)O (centres undefined)	> 50 µM (inactive)	
Cc1cccc(-n2c(O)c(/C=C/C=Nc3ccccc3)c(=O)[nH]c2=O)c1		5.44
Cc1ccc(OCC(=O)c2cc(C)n(CC(F)(F)F)c2C)c([N+](=O)[O-])n1	> 50 µM (inactive)	
CC(C)Sc1nc(N2CCOCC2)c2c3c(sc2n1)COC(C)(C)C3	> 50 µM (inactive)	
CC1(C)CCC(=O)C=C1Nc1ccc(F)c(Cl)c1	> 50 µM (inactive)	
O=C(Cc1ccccc1C(=O)O)Nc1cccc2ccccc12	> 50 µM (inactive)	
Cc1cc(C(=O)O)ccc1-c1ccc(/C=C2\NC(=O)N(Cc3ccccc3Cl)C2=O)o1		4.97
O=Cc1ccc(N2Cc3ccccc3C2)cc1	> 50 µM (inactive)	
OCCNc1c2ccccc2nc2ccccc12		5.40
N#C/C(=C/c1cn(CC(=O)O)c2ccccc12)C(=O)NCc1ccccc1	> 50 µM (inactive)	

SMILES	IC50	pIC50
N=c1oc2ccccc2cc1-c1nc(-c2ccc(Cl)cc2)cs1		4.47
O=C(Nc1cnc2ccccc2c1)c1cccc(-n2cnnn2)c1	> 50 µM (inactive)	
COC(=O)C1=CN(Cc2ccccc2)C=C(C(=O)OC)C1c1ccc(O)c(OC)c1	> 50 µM (inactive)	
CCOC(=O)C1=C(C)NC2=C(C(=O)C(C(=O)OCC)C(c3cccc(OC)c3)C2)C1c1ccccn1 (centres undefined)		4.65
CCOC(=O)c1sc(NC(=O)CSc2nc(C)cc(C)n2)c(C#N)c1C	> 50 µM (inactive)	
N#Cc1c(/N=C/c2ccc(O)cc2O)sc2c1C1CCN2CC1	> 50 µM (inactive)	
CC(C)c1cc(N2CCN(C(=O)c3ccco3)CC2)n2c(nc3ccccc32)c1C#N		4.61
CCOc1ccc(NS(=O)(=O)c2ccc3c(c2)CCN3C(=O)CCC(=O)O)cc1	> 50 µM (inactive)	
CC(C)(C)C(=O)NC(=S)Nc1ccc(S(=O)(=O)Nc2nccs2)cc1	> 50 µM (inactive)	
COCc1ccc(CN2CCCC(CO)(Cc3ccccc3C)C2)o1 (centres undefined)	> 50 µM (inactive)	
COCCn1c(=NC(=O)c2ccc3c(c2)OCO3)c(C#N)cc2c(=O)n3cccc(C)c3nc21	> 50 µM (inactive)	
COc1cc(C(=O)N2CCCN(c3nc4cc(C)ccc4cc3C#N)CC2)cc(OC)c1OC		4.96
Nc1nc2nc(-c3ccc(OCc4ccccc4)cc3)cc(C(F)(F)F)n2n1		5.39
COc1cc2c(cc1OC)CN(Cc1cccs1)CC2	> 50 µM (inactive)	
COc1ccc(/C=C2\SC(=S)N(CC(=O)OCC(=O)Nc3ccc(C)cc3Cl)C2=O)cc1	> 50 µM (inactive)	
COc1cccc(NC(=O)CSc2ncc(S(=O)(=O)c3ccccc3)c(=O)[nH]2)c1	> 50 µM (inactive)	
Cc1ccc(C(=O)NNC2CC(=O)N(c3ccc4c(c3)OCCO4)C2=O)cc1 (centres undefined)	> 50 µM (inactive)	
CCN(Cc1ccccc1)C(=O)CN1C(=O)NC(CC)(c2ccc(F)cc2)C1=O (centres undefined)	> 50 µM (inactive)	
Cc1csc2ncnc(NC3CCN(Cc4ccccc4)CC3)c12	> 50 µM (inactive)	
COc1ccc(-c2c(N)nnc3c2[nH]c2ccccc23)cc1OC	> 50 µM (inactive)	
Cc1cc(C)c(S(=O)(=O)N(C)CC(N)=O)c(C)c1	> 50 µM (inactive)	
CCC(CC)COC(=O)C1=C(C)NC(=O)NC1c1ccc(N(C)C)cc1 (centres undefined)	> 50 µM (inactive)	
Cc1c(CC(=O)N2CCN(C(=O)C3COc4ccccc4O3)CC2)c(=O)oc2c(C)c(O)ccc12 (centres undefined)		4.68
Cc1cc(N2C(=O)C(O)=C(C(=O)c3cc4ccccc4o3)C2c2cccc(Cl)c2)no1 (centres undefined)		4.44
COC(=O)c1ccc(NC(=O)C(=O)N2CCN(C(=S)Nc3ccccc3OC)CC2)cc1	> 50 µM (inactive)	

SMILES	IC50	pIC50
CCCC1C(C#N)=C(N)Oc2cc(C)n(C)c(=O)c21 (centres undefined)	> 50 µM (inactive)	
O=C(NC1CC1)c1ccc2c(Cl)c3c(nc2c1)CCCC3	> 50 µM (inactive)	
O=C(Cn1c(=O)c2cccn2c2cccnc21)NCCCN1CCN(c2ccc(F)cc2)CC1	> 50 µM (inactive)	
CC(=O)N(c1ccc(Cl)cc1)c1c[nH]c2ccccc12	> 50 µM (inactive)	
Cc1c(CCC(=O)NC2CC2)c(=O)oc2c(C)c(O)ccc12		4.68
COc1ccc2c(C)c(C(=O)N3CC[C@@H](N4CCC(O)CC4)[C@H](O)C3)oc2c1	> 50 µM (inactive)	
CCOC(=O)C(=O)Nc1cc(C(=O)OC)cc(C(=O)OC)c1	> 50 µM (inactive)	
CCOC(=O)c1c(NC(=O)Nc2ccc(F)cc2)sc2c1CCN(C)C2	> 50 µM (inactive)	
CC(C)Sc1nc(N2CCOCC2)c2c(c1C#N)CC(C)(C)N(C)C2		4.34
CCOCCCNC(=O)NC(=O)CN1CCN(S(=O)(=O)c2ccc3c(c2)OCCO3)CC1	> 50 µM (inactive)	
COc1ccc(NC(=O)COC(C)=O)cc1Cl	> 50 µM (inactive)	
CCOC(=O)c1c(NC(=O)c2cccc(N3C(=O)CCC3=O)c2)sc2c1CCN(CC)C2	> 50 µM (inactive)	
O=S(=O)(Nc1nc2ccccc2nc1-[n+]1cccc(N=C([O-])c2ccccc2Cl)c1)c1ccccc1		5.20
COc1ccc(CNCc2c(O)c(Cl)cc3c(C)c(C)c(=O)oc23)c(OC)c1		5.22
CCCCc1cc(-c2n[nH]c(=S)o2)c2ccccc2n1	> 50 µM (inactive)	
N#Cc1c(N)[nH]c(=S)c(C#N)c1-c1ccccc1	> 50 µM (inactive)	
CC1CCN(c2cc(=O)n(C3CCCCC3)c(=O)[nH]2)CC1	> 50 µM (inactive)	
COc1ccc(C2c3c(ncn(Cc4ccco4)c3=N)Oc3ccc4ccccc4c32)cc1 (centres undefined)	> 50 µM (inactive)	
CN(C)Cc1c(O)ccc2c3c(c(=O)oc12)CCCCC3		4.61
OCCC1CN(Cc2cccn2-c2cccnc2)CCN1Cc1ccc(F)cc1 (centres undefined)	> 50 µM (inactive)	
Clc1cccc(-c2ccc(C=Nc3ccc(N4CCOCC4)cc3)o2)c1Cl	> 50 µM (inactive)	
COC(=O)c1sccc1NC(=O)c1csc(C)c1	> 50 µM (inactive)	
Clc1ccc(-c2nnc(SCc3nc4ccccc4[nH]3)o2)c(Cl)c1	> 50 µM (inactive)	
CC(C)CCNC(=O)C(c1ccco1)N(Cc1ccccc1)C(=O)c1snc(C(N)=O)c1N (centres undefined)	> 50 µM (inactive)	
NS(=O)(=O)c1ccc(N=Nc2c[nH]c(=O)c(O)c2)cc1	> 50 µM (inactive)	

SMILES	IC50	pIC50
CCOC(=O)c1oc2c(CN3CCN(CCO)CC3)c(O)c(CC)cc2c(=O)c1-c1nc2ccccc2s1		4.73
C=CCn1c(C)c(C(C)=O)c(N2CCN(C(c3ccccc3)c3ccccc3)CC2)nc1=S	> 50 µM (inactive)	
CCc1ccc(-c2nc(CSCC(=O)N3CCN(c4ccccn4)CC3)c(C)o2)cc1	> 50 µM (inactive)	
Cc1cccn2c(=O)c(/C=C(\C#N)C(N)=O)c(Oc3ccccc3)nc12		5.71
COc1ccc(NC(=O)/C(C#N)=C\c2ccc(N3CCOCC3)o2)cc1	> 50 µM (inactive)	
NNC(=O)c1cc2nc(-c3cccs3)cc(C(F)(F)F)n2n1	> 50 µM (inactive)	
CC(=O)N1CCc2c(sc(NC(=O)CCS(=O)(=O)c3ccc(C)cc3)c2C(N)=O)C1		4.51
CCCN1CCC2(CC1)C(C#N)=C(N)Oc1c2sc2nc(C)cc(C)c12	> 50 µM (inactive)	
N=c1c(S(=O)(=O)c2ccc(Br)cc2)cc2c(=O)n3ccccc3nc2n1C1CCCCC1	> 50 µM (inactive)	
CCN(/N=C/C=C/c1ccccc1)c1cc(=O)n(C)c(=O)[nH]1	> 50 µM (inactive)	
CN(C)c1nc(-c2ccccc2)cc(C(F)(F)F)c1C#N		4.97
COc1ccc2cc(-c3nc4ccccc4n3C)c(=O)oc2c1		4.72
Cc1c(N=Cc2c(O)n(Cc3ccco3)c(=O)c3ccccc23)c(=O)n(-c2ccccc2)n1C	> 50 µM (inactive)	
COc1ccc(N=Cc2cc(Cc3ccccc3Cl)cc([N+](=O)[O-])c2O)cc1OC	> 50 µM (inactive)	
Cc1cc(NCCN(C)C)n2nc(-c3cccs3)cc2n1		4.54
CCOC(=O)C1=C(N)OC2=C(C(=O)CCC2)C1c1sccc1C (centres undefined)	> 50 µM (inactive)	
Cc1c(CC(=O)N2CCN(C(=O)C3COc4ccccc4O3)CC2)c(=O)oc2cc(O)c(Cl)cc12 (centres undefined)		5.32
Cc1ccc(NC(=O)COC(=O)Cc2ccsc2)c(C)c1	> 50 µM (inactive)	
CC(C)(C)NC(=O)C(c1ccco1)N(Cc1ccc(F)cc1)C(=O)c1snc(C(N)=O)c1N (centres undefined)	> 50 µM (inactive)	
COc1ccccc1S(=O)Cc1ccc(C(=O)O)o1 (centres undefined)	> 50 µM (inactive)	
CCOC(=O)c1c(N)n(CCCOC(=O)c2ccco2)c2nc3ccccc3nc12		4.63
CNC(=S)Nc1ccc(C(N)=O)cc1	> 50 µM (inactive)	
c1ccc(Nc2nc3ccccc3n3nnnc23)cc1		4.56
O=C(Oc1ccc2c3c(c(=O)oc2c1)CCCC3)c1ccco1		4.80
